From US10987407B2, “Methods and compositions for treating hypoglycemic disorders” (priority 2007, dated 2021)
“Also recorded” adds a separate entry of the source. Like-named read-outs stand apart in the source and are kept apart here. Marks after values point to notes of the source that are not given here.

Tests used:
SUR-1−/− mice [1] = assay: Fasting blood glucose during continuous subcutaneous exendin-(9-39) infusion in SUR-1−/− mice; assay type: in vivo, mouse; conditions: 150 pmol/kg/min s.c. pump, day 3, mean±SEM, vehicle 63.2±4.9
Source text: (§1) SUR-1^−/− mice were kindly provided by Dr. Mark A. Magnuson. The generation and genotyping of SUR-1^−/− mice were previously described (8). Mice are maintained in a C57Bl/6 genetic background. Twelve to eighteen week SUR-1^−/− and wild-type littermatte control mice were used in all experiments. Mice were maintained on a 12:12-h light-dark cycle and were fed a standard rodent chow diet. All procedures were approved and carried out according to the University of Pennsylvania Institutional Animal Care and Use Committee guidelines. […]
(§2) For determination of fasting blood glucose levels mice were fasted for 12-16 hours. […] Blood glucose levels were measured using a hand-held glucose meter (FreeStyle; TheraSense, Alameda, Calif.). Insulin and glucagon were measured by ELISA (Mouse Endocrine Immunoassay Panel; Linco Research, Inc., St. Charles, Mo.).
(§3) Twelve-18 week old male SUR-1^−/− and wildtype littermates underwent a baseline evaluation including fasting blood glucose measurements and oral glucose tolerance testing, followed by randomization to treatment with exendin-(9-39) (150 pmol/kg/min) or vehicle (0.9% NaCl, 1% BSA). Fasting blood glucose levels were determined after an overnight fast on days 3 and 7 of the infusion. In addition, oral glucose tolerance and insulin sensitivity were evaluated during treatment. […]

[2] = system: wild-type littermate control mice; assay: Fasting blood glucose during continuous subcutaneous exendin-(9-39) infusion in wild-type littermates; assay type: in vivo, mouse; conditions: 150 pmol/kg/min s.c. pump
Source text: as §1, §2, §3

SUR-1−/− mice [3] = assay: Fasting hormonal profile (insulin, glucagon, insulin/glucose ratio) during treatment; assay type: in vivo, mouse
Description: (§4) Alzet mini-osmotic pumps (model 2002; Alza, Palo Alto, Calif.) were implanted subcutaneously to deliver exendin-(9-39) (Bachem Bioscience, King of Prussia, Pa.) at a rate of 150 pmol/kg/min or vehicle (0.9% NaCl/1% BSA) for 2 weeks. For determination of fasting blood glucose levels mice were fasted for 12-16 hours. Oral glucose tolerance testing was carried after a 12-16 hour fast by administering 2 g/kg of dextrose by oral gavage (feeding needles; Popper and Sons, Inc., Hyde Park, N.Y.). For insulin tolerance testing mice received 0.5 units/kg of insulin intraperitoneally after a 4 hour fast. Blood glucose levels were measured using a hand-held glucose meter (FreeStyle; TheraSense, Alameda, Calif.). Insulin and glucagon were measured by ELISA (Mouse Endocrine Immunoassay Panel; Linco Research, Inc., St. Charles, Mo.).

SUR-1−/− mice [4] = assay: Oral glucose tolerance test in SUR-1−/− mice; assay type: in vivo, mouse
Description: as §4

wild-type littermates = assay: Oral glucose tolerance test in wild-type littermates; assay type: in vivo, mouse; conditions: wild-type littermates during treatment
Description: as §4

[5] = system: SUR-1−/− and wild-type mice; assay: Insulin tolerance test (insulin sensitivity); assay type: in vivo, mouse; conditions: any of the treatment groups; 0.5 units/kg insulin i.p.
Description: as §4, with “Mo.). To determine the mechanism of action for the effect of exendin-(9-39) on fasting blood glucose levels insulin sensitivity was assessed by an insulin tolerance test.” for “Mo.).”

SUR-1−/− islets [6] = assay: Perifusion of isolated islets with amino acid ramp, insulin release; assay type: cell-based, mouse
Description: Islets were isolated by collagenase digestion and cultured for 3 days in RPMI 1640 medium containing 10 mM glucose. The culture medium was supplemented with 10% fetal bovine serum, 2 mM glutamine, 100 units/mL penicillin, and 50 μg/mL streptomycin. Islets were incubated at 37° C. in a 5% CO2, 95% air-humidified incubator. Batches of 100 cultured mouse islets were loaded onto a nylon filter in a chamber and perifused with Krebs-Ringer bicarbonate buffer (115 mM NaCl, 24 mM NaHCO3, 5 mM KCl, 1 mM MgCl2, 2.5 mM CaCl2), 10 mM HEPES, pH 7.4) with 0.25% bovine serum albumin at a flow rate of 2 mL/min. Perifusate solutions were gassed with 95% 02, 5% CO2 and maintained at 37° C. Islets were stimulated with a ramp of amino acids. […] Insulin was measured by radioimmunoassay (Linco Research Inc., St. Charles, Mo.).
Given the observed in vivo effects on insulin secretion but not insulin sensitivity, it was next determined whether exendin-(9-39) exerts a direct effect on SUR-1^−/− islet function. […]

SUR-1−/− islets [7] = assay: cAMP content in static incubations of isolated islets; assay type: cell-based, mouse
Description: Islets were isolated as above, hand-picked and cultured for three days. Cultured islets were preincubated in glucose free Krebs-Ringer bicarbonate buffer for 60 min, 100 nM exendin-(9-39) was added 30 min into the preincubation period. Then, islets were exposed to different treatments for an additional 30 min in the presence of 0.1 mM isobutyl-methylzanthine (IBMX). After incubation, islets were washed 2 times by cold glucose-free Hank's buffer. cAMP was measured in islet lysates by ELISA (GE/Amersham Biosciences, Piscataway, N.J.). The effect of exendin-(9-39) on cAMP was determined in static incubations of isolated islets.

SUR-1−/− islets [8] = assay: Insulin secretion in static incubations of isolated islets; assay type: cell-based, mouse
SUR-1−/− islets [9] = assay: Cytosolic free Ca2+ measurement (Fura-2) in islets; assay type: cell-based, mouse
Description: Mouse islets were isolated and cultured on poly-[…] coated glass coverslips under the same conditions as described above. The perifusion procedure and cytosolic-free Ca2+([Ca2+]i) measurement were described previously (24). In brief, the coverslip with attached islets was incubated with 15 μM Fura-2 acetoxymethylester (Molecular Probes, Eugene, Oreg.) in Krebs-Ringer bicarbonate buffer with 5 mM glucose for 35 min at 37° C. Islets were then perifused with Krebs-Ringer bicarbonate buffer with 0.25% bovine serum albumin at 37° C. at a flow rate of 2 mL/min, while various agents were applied. [Ca2+]i was measured with a dual wavelength fluorescence microscope as previously described. The effect of exendin-(9-39) on the characteristically elevated intracellular calcium concentration of SUR-1^-/- islets was studied. […] As previously reported, amino acids caused a transient further rise in intracellular calcium.

[10] = system: subject with congenital hyperinsulinism due to a mutation in ABCC8; assay: Intravenous exendin-(9-39) infusion in fasting subjects with congenital hyperinsulinism; assay type: in vivo, human
Description: After an overnight fast, subject received an intravenous infusion of 0.9% NaCl for 60 min followed by a 6 hour intravenous infusion of exendin-(9-39) at ascending doses every 120 min (100 pmol/kg/min for 120 min, then 300 pmol/kg/min for 120 min and then 500 pmol/kg/min for 120 min). On the second day, 0.9% NaCl was infused intravenously after an overnight fast for a total of 7 hours.
Blood samples for glucose, insulin, C-peptide, glucagon and GLP-1 were obtained at different intervals during the infusions.

[11] = among the treatment groups, during treatment
[12] = fasting HI subject, i.v. ascending doses

exendin-(9-39)
Fasting blood glucose levels (SUR-1−/− mice [1]): 82.2 ± 6.3 mg/dL | Fasting blood glucose levels vs vehicle-treated wild type controls [2]: not different | Insulin/glucose ratio (SUR-1−/− mice [3]; SUR-1−/− mice, exendin-(9-39) treatment vs WT): normalized | Fasting glucagon levels (SUR-1−/− mice [3]; [11]): not different | Fasting insulin levels (SUR-1−/− mice [3]; [11]): not different | Glucose tolerance (oral, 2 g/kg) (SUR-1−/− mice [4]; SUR-1−/− mice during treatment): did not significantly impair; also recorded: did not influence | Return to baseline blood glucose levels after oral glucose (SUR-1−/− mice [4]; SUR-1−/− mice, 120 minute time point): minor delay | Glucose tolerance (oral, 2 g/kg) (wild-type littermates): no effect | Peripheral insulin sensitivity (insulin tolerance test) [5]: did not impact; also recorded: did not influence | Insulin release in response to amino acid ramp stimulation (SUR-1−/− islets [6]; 100 nM exendin-(9-39), amino acid mixture 0-12 mM): blocked | Insulin response to KCl (SUR-1−/− islets [6]; presence vs absence of exendin-(9-39)): similar | cAMP Content (SUR-1−/− islets [7]; 100 nM exendin-(9-39) with 4 mM amino acid mixture (AAM)): 20.9±4.4 pmol/100 islets | cAMP Content (SUR-1−/− islets [7]; 100 nM exendin-(9-39) with 4 mM amino acid mixture (AAM), listed as Exendin-(9-39)): 52.5 ± 9.4 ^c pmol/100 islets | cAMP Content (SUR-1−/− islets [7]; basal, 100 nM exendin-(9-39), no exogenous GLP-1, baseline 40.1±4.2): 20.5±2.3 pmol/100 islets | cAMP Content (SUR-1−/− islets [7]; basal, 100 nM exendin-(9-39), no exogenous GLP-1, baseline 40.1±4.2, listed as Exendin-(9-39)): 20.5 ± 2.3 ^a pmol/100 islets | Insulin Secretion (SUR-1−/− islets [8]; 100 nM exendin-(9-39) with 4 mM AAM, AAM alone 389±17): 219±14 ng/100 islets/30 min | Insulin Secretion (SUR-1−/− islets [8]; 100 nM exendin-(9-39) with 4 mM AAM, AAM alone 389±17, listed as Exendin-(9-39)): 219 ± 14 ng/100 islets/30 min | Insulin Secretion (SUR-1−/− islets [8]; baseline, 100 nM exendin-(9-39), baseline without 221±22): 126±12 ng/100 islets/30 min | Insulin Secretion (SUR-1−/− islets [8]; baseline, 100 nM exendin-(9-39), baseline without 221±22, listed as Exendin-(9-39)): 126 ± 12 ^a ng/100 islets/30 min | Basal intracellular calcium (SUR-1−/− islets [9]): did not impact | Amino acid-stimulated rise in intracellular calcium (SUR-1−/− islets [9]; amino acids 4 mM): no effect | Basal intracellular calcium (SUR-1−/− islets [9]; listed as Exendin-(9-39)): did not affect | Fasting blood glucose levels ([10]; another 2 human subjects): elevation | Blood glucose levels during infusion ([10]; fasting HI subject, i.v. 100, 300, 500 pmol/kg/min each 120 min, saline infusion dropped below 60): above 80 mg/dL | Fasting hypoglycemia [10, 12]: prevented | Plasma insulin [10, 12]: suppressed
